Columns and labels:
Format in all cases: in vivo
Rhizoctonia solani = assay: Rice sheath blight control on sprayed rice seedlings (Example 87); conditions: 100 ppm spray, day before inoculation; for pest or weed control at 100 ppm: Rhizoctonia solani, 168 h
Method: The compounds of the previous examples were again dissolved in acetone in an amount equal to 6% of the final volume and then suspended at a concentration of 100 ppm in purified water containing 250 ppm of the surfactant TREM 014 (polyhydric alcohol esters). This suspension was sprayed to the point of run-off on rice seedlings. The following day, the plants were inoculated with a mixture of bran and the mycelium of Rhizoctonia solani, causal agent of sheath blight of rice, and incubated in a growth room for 7 days. Disease ratings were then made. Treated plants from successful treatments had little sheath blight in contrast to untreated plants which were covered with sheath blight.

Phytophthora infestans = assay: whole plant or invertebrate; conditions: for pest or weed control at 100 ppm: Phytophthora infestans, in Solanum lycopersicum, 168 h, read-out: % Control of Tomato Late Blight, 100 ppm spray, day before inoculation; for % Control of Tomato Late Blight: 100 ppm spray, day before inoculation
Venturia inaequalis = assay: Apple scab control on sprayed apple seedlings (Example 82); conditions: 100 ppm spray, day before inoculation; for pest or weed control at 100 ppm: Venturia inaequalis
Method: These suspensions were sprayed to the point of run-off on apple seedlings. The following day, the plants were inoculated with a spore suspension of the fungus Venturia inaequalis, causal agent of apple scab, and incubated in a saturated humidity chamber at 20° for 24 hours and then in a growth room for an additional 10-12 days. Treated plants from successful treatments had fewer apple scab lesions when compared to untreated plants which were covered with scab lesions. Phytotoxicity expressed as growth reduction was observed on some of the plants in association with disease control.

Cercospora arachidicola = assay: Peanut early leafspot control on sprayed peanut seedlings (Example 84); conditions: 100 ppm spray, day before inoculation; for pest or weed control at 100 ppm: Mycosphaerella arachidis, 360 h, read-out: % Control Peanut Easly Leafspot
Method: These suspensions were sprayed to the point of run-off on peanut seedlings. The following day, the plants were inoculated with a spore suspension of Cercospora arachidicola, causal agent of peanut early leafspot, and incubated in a saturated humidity chamber at 27° for 24 hours and then in a growth room for an additional 14 days, when disease ratings were made. Treated plants from successful treatments had few or no leafspots while the untreated plants had numerous leafspots.

cucumber seedlings = assay: Phytotoxicity on cucumber seedlings (Example 80); design: key: G = growth reduction; H = hormonal effects; conditions: 100 ppm spray
Method: (§1) The compounds of the previous example were again dissolved in acetone in an amount equal to 6% of the final volume and then suspended at a concentration of 100 ppm in purified water containing 250 ppm of the surfactant TREM 014 (polyhydric alcohol esters). These suspensions were sprayed to the point of run-off, on cucumber seedlings. The following day, the plants were inoculated with a spore suspension of the fungus Erysiphe cichoracearum, causal agent of cucumber powdery mildew, and incubated in a growth room for 7 days. Disease ratings were then made. Treated plants from successful treatments had little or no powdery mildew in contrast to untreated plants which were covered with powdery mildew. Phytotoxicity in the form of growth reduction or hormonal effects was observed on some of the plants in association with disease control.

Erysiphe cichoracearum = assay: Cucumber powdery mildew control on sprayed cucumber seedlings (Example 80); conditions: 100 ppm spray, day before inoculation; for pest or weed control at 100 ppm: Golovinomyces cichoracearum, 168 h
Method: as §1, with “These” for “The compounds of the previous example were again dissolved in acetone in an amount equal to 6% of the final volume and then suspended at a concentration of 100 ppm in purified water containing 250 ppm of the surfactant TREM 014 (polyhydric alcohol esters). These”

Helminthosporium maydis = assay: Southern corn leaf blight control on sprayed corn seedlings (Example 83); conditions: 100 ppm spray, day before inoculation; for pest or weed control at 100 ppm: Bipolaris maydis, 192 h
Method: The compounds of the previous examples were again dissolved in acetone in an amount equal to 6% of the final volume and then suspended at a concentration of 100 ppm in purified water containing 250 ppm of the surfactant TREM 014 (polyhydric alcohol esters). These suspensions were sprayed to the point of run-off on corn seedlings. The following day, the plants were inoculated with a spore suspension of Helminthosporium maydis, causal agent of southern corn leaf blight, and incubated in a saturated humidity chamber at 20° for 24 hours and then in a growth room for an additional 7 days, when disease ratings were made. Treated plants from successful treatments had few or no lesions while the untreated plants had numerous lesions on each leaf. Phytotoxicity expressed as growth reduction was observed on some of the plants in association with disease control.

Pyricularia oryzae = assay: whole plant or invertebrate; conditions: for pest or weed control at 100 ppm: Pyricularia oryzae, 168 h, read-out: % Control of Rice Blast, 100 ppm spray, day before inoculation; for % Control of Rice Blast: 100 ppm spray, day before inoculation
[1] = system: Puccinia recondita var. tritici; assay: Wheat leaf rust control on sprayed wheat seedlings (Example 79); conditions: 100 ppm spray, day before inoculation; for pest or weed control at 100 ppm: Puccinia recondita, 168 h
Method: The compounds of this invention were dissolved in acetone in an amount equal to 6% of the final volume and then suspended at a concentration of 100 ppm in purified water containing 250 ppm of the surfactant TREM 014 (polyhydric alcohol esters). These suspensions were sprayed to the point of run-off on wheat seedlings. The following day, the plants were inoculated with a spore suspension of Puccinia recondita var. tritici, causal agent of wheat leaf rust, and incubated in a saturated humidity chamber at 20° for 24 hours and then in a growth room for an additional 7 days, when disease ratings were made. Treated plants from successful treatments had few or no rust pustules while the untreated plants had numerous rust pustules on each leaf.

| Compound | pest or weed control at 100 ppm (Rhizoctonia solani) | pest or weed control at 100 ppm (Phytophthora infestans) | pest or weed control at 100 ppm (Venturia inaequalis) | pest or weed control at 100 ppm (Cercospora arachidicola) | Phytotoxicity on cucumber (cucumber seedlings) | pest or weed control at 100 ppm (Erysiphe cichoracearum) | pest or weed control at 100 ppm (Helminthosporium maydis) | pest or weed control at 100 ppm (Pyricularia oryzae) | pest or weed control at 100 ppm [1] | % Control of Rice Sheath Blight (Rhizoctonia solani) | % Control of Tomato Late Blight (Phytophthora infestans) | % Control Apple Scab (Venturia inaequalis) | % Control Peanut Easly Leafspot (Cercospora arachidicola) | % Control Cucumber Powdery Mildew (Erysiphe cichoracearum) | % Control of Southern Corn Leaf Blight (Helminthosporium maydis) | % Control of Rice Blast (Pyricularia oryzae) | % Control Wheat Rust [1] |
| --- | --- | --- | --- | --- | --- | --- | --- | --- | --- | --- | --- | --- | --- | --- | --- | --- | --- |
| COc1cccc([Si](C)(C)Cn2cncn2)c1OC [(2,3-Dimethoxyphenyl)dimethyl(1H-1,2,4-triazol-1-ylmethyl)silane] | 0% | 0% | 0% | 0% | G | 100% | 0% | 0% | 0% | – | – | – | – | – | – | – | – |
| COc1cccc(OC)c1[Si](C)(C)Cn1cncn1 [(2,6-Dimethoxyphenyl)dimethyl(1H-1,2,4-triazol-1-ylmethyl)silane] | 0% | 0% | 0% | 0% | G | 100% | 0% | 0% | 0% | – | – | – | – | – | – | – | – |
| C[Si](C)(Cn1cncn1)c1ccccc1Cl [(2-Chlorophenyl)dimethyl(1H-1,2,4-triazol-1-ylmethyl)silane] | 0% | 0% | – | – | G | – | – | 100% | 0% | – | – | – | – | – | – | – | – |
| COc1ccccc1[Si](C)(C)Cn1cncn1 [(2-Methoxyphenyl)dimethyl(1H-1,2,4-triazol-1-ylmethyl)silane] | 0% | 0% | 80% | 0% | G | 100% | 70% | 0% | 0% | – | – | – | – | – | – | – | – |
| C[Si](C)(Cn1cncn1)C1CCCCC1 [Cyclohexyl(dimethyl)(1H-1,2,4-triazol-1-ylmethyl)silane] | 0% | 0% | 0% | 0% | G | 100% | 50% | – | 0% | – | – | – | – | – | – | – | – |
| C[Si](C)(Cn1cncn1)c1ccc(C(F)(F)F)cc1 [Dimethyl(1H-1,2,4-triazol-1-ylmethyl)(4-trifluoromethylphenyl)silane] | 0% | 0% | 0% | 0% | G | 100% | 50% | 0% | 0% | – | – | – | – | – | – | – | – |
| C[Si](C)(Cn1cncn1)c1ccc(OC(F)(F)F)cc1 [Dimethyl(4-trifluoromethoxyphenyl)(1H-1,2,4-triazol-1-ylmethyl)silane] | 0% | 0% | 90% | 50% | G | 100% | 80% | 0% | 100% | – | – | – | – | – | – | – | – |
| C[Si](Cn1cncn1)(c1ccc(Br)cc1)c1ccc(Br)cc1 [[bis(4-Bromophenyl)]methyl(1H-1,2,4-triazol-1-ylmethyl)silane] | 0% | 0% | 80% | 100% | G | 80% | 0% | 90% | 0% | – | – | – | – | – | – | – | – |
| COc1ccc([Si](C)(Cn2cncn2)c2ccc(OC)cc2)cc1 [[bis(4-Methoxyphenyl)]methyl(1H-1,2,4-triazol-1-ylmethyl)silane] | 80% | 0% | 0% | 30% | – | 0% | 90% | 0% | 0% | – | – | – | – | – | – | – | – |
| C[Si](Cn1cncn1)(c1ccc(Cl)cc1Cl)c1ccc(Cl)cc1Cl [bis(2,4-Dichlorophenyl)(methyl)(1H-1,2,4-triazol-1-ylmethyl)silane] | 0% | 0% | 100% | 100% | G | 100% | 80% | 0% | 100% | – | – | – | – | – | – | – | – |
| O[Si](Cn1cnnc1)(c1ccc(Cl)cc1)c1ccc(Cl)cc1 [bis(4-Chlorophenyl)hydroxy(4H-1,2,4-triazol-4-ylmethyl)silane] | 0% | 0% | 100% | 100% | – | 100% | 80% | 0% | 90% | – | – | – | – | – | – | – | – |
| Clc1ccc([Si](Cn2cncn2)(c2ccc(Cl)cc2)c2ccc(Cl)cc2)cc1 [tris(4-Chlorophenyl)(1H-1,2,4-triazol-1-ylmethyl)silane] | 0% | 0% | 0% | 0% | – | 100% | 0% | 0% | 40% | – | – | – | – | – | – | – | – |
| Fc1ccc([Si](Cn2cncn2)(c2ccc(F)cc2)c2ccc(F)cc2)cc1 [tris(4-Fluorophenyl)(1H-1,2,4-triazol-1-ylmethyl)silane] | 0% | 0% | 60% | 90% | – | 0% | 0% | 0% | 90% | – | – | – | – | – | – | – | – |
| (1,1'-Biphenyl-4-yl)dimethyl(1H-1,2,4-triazol-1-ylmethyl)silane, 1:1 complex with zinc (II) chloride | – | – | – | – | – | – | – | – | – | 90% | 90% | 100% | 100% | 80% | 90% | 100% | 100% |
| (1,1'-Biphenyl-4-yl)dimethyl(1H-1,2,4-triazol-1-ylmethyl)silane, 2:1 complex with cupric chloride | – | – | – | – | – | – | – | – | – | 80% | 0% | 100% | 100% | 100% | 80% | 0% | 100% |
